Test results taken from US12097202B2 (Kadmon Corporation, LLC, priority 2022, dated 2024).

Legend:
rat bone marrow = assay: in vivo rat bone marrow micronucleus assay
pregnant rabbits = conditions: female, rabbit, in vivo, po
CYP3A4 = CYP3A4 (Homo sapiens, UniProt P08684); assay: In vitro metabolism by CYP3A4; type: in vitro ADME
[1] = Clinical pharmacokinetics in healthy subjects (bioavailability, food effect, distribution, excretion); type: in vivo, human
BCRP = molecular target: T1, BCRP (Homo sapiens, UniProt Q9UNQ0); assay: In vitro transporter study, BCRP; type: in vitro ADME; conditions: at clinically relevant concentrations
T1 sequence (Q9UNQ0 1-655): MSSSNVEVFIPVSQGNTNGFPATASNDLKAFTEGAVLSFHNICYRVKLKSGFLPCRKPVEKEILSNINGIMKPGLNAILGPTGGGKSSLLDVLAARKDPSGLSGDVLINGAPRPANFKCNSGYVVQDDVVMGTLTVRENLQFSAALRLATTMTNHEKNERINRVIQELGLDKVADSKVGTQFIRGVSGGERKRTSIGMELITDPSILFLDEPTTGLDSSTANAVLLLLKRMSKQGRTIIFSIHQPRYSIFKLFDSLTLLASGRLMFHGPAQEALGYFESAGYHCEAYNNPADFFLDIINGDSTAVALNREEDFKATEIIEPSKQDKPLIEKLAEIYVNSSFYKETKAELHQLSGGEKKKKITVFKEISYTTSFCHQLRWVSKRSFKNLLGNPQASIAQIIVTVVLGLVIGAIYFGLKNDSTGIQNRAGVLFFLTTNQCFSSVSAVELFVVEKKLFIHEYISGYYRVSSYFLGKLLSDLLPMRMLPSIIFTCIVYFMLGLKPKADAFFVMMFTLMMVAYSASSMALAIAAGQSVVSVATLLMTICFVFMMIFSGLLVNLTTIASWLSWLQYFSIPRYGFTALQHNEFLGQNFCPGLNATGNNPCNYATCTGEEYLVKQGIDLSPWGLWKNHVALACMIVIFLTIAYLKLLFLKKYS

CYP2C19 = CYP2C19 (Homo sapiens, UniProt P33261); assay: In vitro enzyme inhibition, CYP2C19; type: in vitro ADME
Sequence of CYP2C19 (P33261 whole entry): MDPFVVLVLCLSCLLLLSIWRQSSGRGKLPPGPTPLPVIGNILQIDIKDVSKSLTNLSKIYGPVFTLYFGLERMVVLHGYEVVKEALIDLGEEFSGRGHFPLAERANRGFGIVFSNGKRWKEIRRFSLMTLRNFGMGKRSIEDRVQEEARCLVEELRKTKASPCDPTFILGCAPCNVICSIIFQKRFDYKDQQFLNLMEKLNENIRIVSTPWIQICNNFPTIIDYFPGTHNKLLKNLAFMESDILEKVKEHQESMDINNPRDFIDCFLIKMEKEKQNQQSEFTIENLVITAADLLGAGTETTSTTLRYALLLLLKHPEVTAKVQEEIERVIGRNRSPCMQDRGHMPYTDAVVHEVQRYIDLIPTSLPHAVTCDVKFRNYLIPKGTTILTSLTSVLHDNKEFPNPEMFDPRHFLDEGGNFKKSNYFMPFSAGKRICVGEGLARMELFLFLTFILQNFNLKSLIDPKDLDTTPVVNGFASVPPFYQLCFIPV

[2] = system: bacterial mutagenicity (Ames); assay: in vitro bacterial mutagenicity (Ames) assay; type: cell-based
OATP1B1 = molecular target: T2, OATP1B1 (Homo sapiens, UniProt Q9Y6L6); assay: In vitro transporter study, OATP1B1; type: in vitro ADME; conditions: at clinically relevant concentrations
T2 sequence (Q9Y6L6 1-691): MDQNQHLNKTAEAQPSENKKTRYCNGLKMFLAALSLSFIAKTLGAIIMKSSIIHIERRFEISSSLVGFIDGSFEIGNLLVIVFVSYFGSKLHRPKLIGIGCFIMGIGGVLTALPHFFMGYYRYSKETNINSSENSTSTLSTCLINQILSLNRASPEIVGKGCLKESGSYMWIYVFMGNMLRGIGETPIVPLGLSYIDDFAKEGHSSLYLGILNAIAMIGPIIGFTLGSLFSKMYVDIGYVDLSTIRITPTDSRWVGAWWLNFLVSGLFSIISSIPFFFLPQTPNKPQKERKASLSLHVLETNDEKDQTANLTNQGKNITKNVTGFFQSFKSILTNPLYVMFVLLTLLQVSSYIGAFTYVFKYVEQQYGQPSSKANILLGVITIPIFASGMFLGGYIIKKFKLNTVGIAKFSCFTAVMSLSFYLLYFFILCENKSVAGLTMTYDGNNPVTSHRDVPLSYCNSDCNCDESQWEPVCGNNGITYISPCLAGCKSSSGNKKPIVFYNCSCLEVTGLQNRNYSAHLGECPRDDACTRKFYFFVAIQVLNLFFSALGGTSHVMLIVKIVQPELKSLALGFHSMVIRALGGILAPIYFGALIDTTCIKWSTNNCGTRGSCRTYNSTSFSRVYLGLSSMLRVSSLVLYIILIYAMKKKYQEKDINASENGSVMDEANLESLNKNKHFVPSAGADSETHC

UGT1A9 = molecular target: T3, UGT1A9 (Homo sapiens, UniProt O60656); assay: In vitro enzyme inhibition, UGT1A9; type: in vitro ADME
T3 sequence (O60656 26-530): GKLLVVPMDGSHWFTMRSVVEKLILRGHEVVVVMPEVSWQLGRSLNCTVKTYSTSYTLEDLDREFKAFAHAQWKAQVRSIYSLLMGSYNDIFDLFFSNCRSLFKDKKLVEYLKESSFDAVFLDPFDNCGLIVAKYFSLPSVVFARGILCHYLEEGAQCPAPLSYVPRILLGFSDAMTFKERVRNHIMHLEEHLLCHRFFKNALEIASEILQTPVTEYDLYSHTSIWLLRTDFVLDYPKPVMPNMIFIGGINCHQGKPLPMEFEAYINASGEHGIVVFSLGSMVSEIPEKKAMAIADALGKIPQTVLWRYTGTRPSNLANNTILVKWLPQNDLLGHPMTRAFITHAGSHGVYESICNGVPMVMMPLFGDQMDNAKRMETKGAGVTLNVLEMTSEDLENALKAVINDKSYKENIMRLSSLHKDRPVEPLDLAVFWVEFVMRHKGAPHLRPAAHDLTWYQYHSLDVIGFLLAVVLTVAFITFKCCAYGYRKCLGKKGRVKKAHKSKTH

CYP2D6 = CYP2D6 (Homo sapiens, UniProt P10635); assay: In vitro enzyme inhibition, CYP2D6; type: in vitro ADME
Sequence of CYP2D6 (P10635 whole entry): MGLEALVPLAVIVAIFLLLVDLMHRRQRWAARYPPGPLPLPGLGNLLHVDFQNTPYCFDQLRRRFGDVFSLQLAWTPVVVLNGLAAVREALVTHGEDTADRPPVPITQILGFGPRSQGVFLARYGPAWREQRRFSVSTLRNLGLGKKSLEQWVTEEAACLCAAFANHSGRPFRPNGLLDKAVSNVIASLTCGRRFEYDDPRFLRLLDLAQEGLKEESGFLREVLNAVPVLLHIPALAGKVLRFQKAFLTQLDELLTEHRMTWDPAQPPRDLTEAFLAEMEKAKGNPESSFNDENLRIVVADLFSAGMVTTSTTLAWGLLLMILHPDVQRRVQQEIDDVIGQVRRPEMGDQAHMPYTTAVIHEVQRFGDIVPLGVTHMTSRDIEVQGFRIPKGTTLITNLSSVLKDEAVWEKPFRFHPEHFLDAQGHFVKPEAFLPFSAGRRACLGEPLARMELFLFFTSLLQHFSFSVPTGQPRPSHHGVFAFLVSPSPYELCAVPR

CYP1A2 = molecular target: T4, CYP1A2 (Homo sapiens, UniProt P05177); assay: In vitro enzyme inhibition, CYP1A2; type: in vitro ADME
T4 sequence (P05177 1-516): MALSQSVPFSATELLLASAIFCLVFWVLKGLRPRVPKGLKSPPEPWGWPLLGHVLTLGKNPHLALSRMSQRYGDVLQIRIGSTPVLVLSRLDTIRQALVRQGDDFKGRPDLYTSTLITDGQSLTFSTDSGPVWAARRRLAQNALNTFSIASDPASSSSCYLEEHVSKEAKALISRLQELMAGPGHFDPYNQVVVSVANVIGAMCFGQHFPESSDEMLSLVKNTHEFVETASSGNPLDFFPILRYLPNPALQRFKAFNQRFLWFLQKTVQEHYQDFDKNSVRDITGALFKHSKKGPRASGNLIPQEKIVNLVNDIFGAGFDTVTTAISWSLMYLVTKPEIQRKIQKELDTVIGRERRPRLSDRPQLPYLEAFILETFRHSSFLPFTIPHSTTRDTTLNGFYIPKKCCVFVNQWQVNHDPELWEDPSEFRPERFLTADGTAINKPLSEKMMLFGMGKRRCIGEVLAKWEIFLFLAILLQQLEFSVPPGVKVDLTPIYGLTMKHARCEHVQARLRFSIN

[3] = single oral dose of radiolabeled belumosudil

Sequence of CYP3A4 (P08684 whole entry): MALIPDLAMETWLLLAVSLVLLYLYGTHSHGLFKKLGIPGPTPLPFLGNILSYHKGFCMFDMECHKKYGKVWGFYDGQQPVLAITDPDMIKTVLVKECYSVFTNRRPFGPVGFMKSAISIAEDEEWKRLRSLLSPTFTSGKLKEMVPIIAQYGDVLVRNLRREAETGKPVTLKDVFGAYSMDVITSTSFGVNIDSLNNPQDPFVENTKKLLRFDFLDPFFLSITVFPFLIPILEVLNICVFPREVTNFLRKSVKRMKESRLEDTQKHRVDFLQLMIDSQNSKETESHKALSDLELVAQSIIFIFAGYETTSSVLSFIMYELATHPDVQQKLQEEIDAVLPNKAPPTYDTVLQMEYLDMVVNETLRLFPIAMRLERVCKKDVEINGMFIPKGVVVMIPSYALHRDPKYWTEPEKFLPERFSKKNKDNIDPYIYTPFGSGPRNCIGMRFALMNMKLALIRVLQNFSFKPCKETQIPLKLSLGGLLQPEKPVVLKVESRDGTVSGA

CC(C)NC(=O)COc1cccc(-c2nc(Nc3ccc4[nH]ncc4c3)c3ccccc3n2)c1 [belumosudil, 2-{3-[4-(1H-indazol-5-ylamino)-2-quinazolinyl]phenoxy}-N-(propan-2-yl) acetamide]
genotoxicity, bone marrow micronucleus assay (rat bone marrow): not genotoxic | doses at which embryo-fetal effects were observed (pregnant rabbits): ≥ 50 mg/kg/day | doses at which maternal toxicity (body weight loss and mortality) was observed (pregnant rabbits): ≥ 125 mg/kg/day | metabolism by CYP3A4 (CYP3A4): primarily metabolized | AUC increase with high-fat and high-calorie meal vs fasted ([1]; single dose): 2 times | Cmax increase with high-fat and high-calorie meal vs fasted ([1]; single dose): 2.2 times | radioactivity recovered in feces [1, 3]: 85% | radioactivity recovered in feces as unchanged [1, 3]: 30% | radioactivity recovered in urine [1, 3]: less than 5% | inhibition of BCRP (BCRP): inhibits | inhibition of CYP2C19 (CYP2C19): inhibitor | genotoxicity, bacterial mutagenicity (Ames) assay [2]: not genotoxic | inhibition of OATP1B1 (OATP1B1): inhibits | inhibition of UGT1A9 (UGT1A9): inhibitor | inhibition of CYP2D6 (CYP2D6): inhibitor | inhibition of CYP1A2 (CYP1A2): inhibitor
